These are literature values, as cited in PMC5152921, “Evolutionary and Functional Diversification of the Vitamin D Receptor-Lithocholic Acid Partnership” (PLoS ONE, 2016).

For the series, the system named is all eight VDRs tested. Also on record: method as in PMID 25279795, PMID 25855982. The conditions noted are these: transient transactivation assays; cited from earlier work.

SMILES strings stand for the structures.

Consider `C=C1/C(=C\C=C2/CCC[C@]3(C)[C@@H]([C@H](C)CCCC(C)(C)O)CC[C@@H]23)C[C@@H](O)C[C@@H]1O` [1,25D3, 1α,25-dihydroxyvitamin D3], for which the VDR transactivation result is “activates all eight VDRs tested”.
